Results as given in patent US20240240136A1, “SELECTIVE LYSIS OF MAMMALIAN EUKARYOTIC CELLS AND VISUALIZATION OF VIABLE BACTERIAL CELLS” (priority 2021, published 2024).
Converted amounts (≈) assume the structure as drawn. Where a name gives a salt, the structure may show the parent alone. Read-outs that look alike come from different tables or passages of the source.

Experiments:
E. coli ATCC 25922 = assay: Antibiotic susceptibility testing with lysis buffer sample preparation and PB detection; assay type: cell-based; conditions: for MIC: E. coli ATCC 25922 spiked in blood and MH media, 16 hr of incubation; for growth of bacteria (OD value) with increase in antibiotic concentration: ampicillin 2 mg/L to 16 mg/L, gentamicin 0.5 mg/L to 8 mg/L, after 16 hr of incubation
Source text: FIGS. 7 and 8 show antibiotic susceptibility testing. The lysis buffer based sample preparation method combined with detection using PB formation was used to perform antibiotic susceptibility testing (recommended by EUCAST [15]) using different concentration of ampicillin and gentamicin in separate experiments, on E. coli ATCC 25922 bacteria strain (10^6 CFU/mL) spiked in blood (sample) and in MH media (positive control). ‘MH+Lysis buffer’ is used as negative control (NC). […] The corresponding decrease in PB colour formation on the filter paper with increase in ampicillin and gentamicin concentration is shown on top of each bar in the graphs of the FIG. 7 and FIG. 8, respectively. The MIC of ampicillin and gentamicin was determined to be 16 and 8 mg/L respectively, which was in agreement with the MIC range provided by EUCAST for E. coli ATCC 25922.

Compound	toxicity to bacteria (bacteria)	MIC (E. coli ATCC 25922; Escherichia coli, ATCC25922, read-out: MIC)	growth of bacteria (OD value) with increase in antibiotic concentration (E. coli ATCC 25922)	MIC (E. coli ATCC 25922)
O=C(O)CC(O)(CC(=O)O)C(=O)O [Citrate, ferric ammonium citrate]	not toxic			
CC1(C)S[C@@H]2[C@H](NC(=O)[C@H](N)c3ccccc3)C(=O)N2[C@H]1C(=O)O [ampicillin]		16 µg/mL (≈ 45.8 µM)	growth of bacteria decreased	
gentamicin			growth of bacteria decreased	8 µg/mL
